The supplement of paper PMC10307832

How the values were obtained:
Test in all cases: relative viability (nuclei count vs DMSO), 5 days (fraction); higher = more cells survive
GSK-J4 + Palbociclib = compound: CCOC(=O)CCNc1cc(N2CCc3ccccc3CC2)nc(-c2ccccn2)n1 [GSK-J4] + CC(=O)c1c(C)c2cnc(Nc3ccc(N4CCNCC4)cn3)nc2n(C2CCCC2)c1=O [Palbociclib] (partner 0.5 µM)
Method in brief: (§1)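 After 5 days of treatment, lung cancer cells in 1536-well plates were fixed and stained in a single step (final 0.05% Triton X-100, 1% formaldehyde, 1 ug/ml Hoechst) and their nuclei counted on 4× images. Treatment had been applied by pin tool the day after seeding as one drug alone or as a fixed anchor-drug dose with five library-drug doses (not always all listed) in √10 steps. Relative viability is the nuclei count of treated wells divided by that of vehicle wells, and values are medians of duplicate plates.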

GSK-J4 + Navitoclax = compound: CCOC(=O)CCNc1cc(N2CCc3ccccc3CC2)nc(-c2ccccn2)n1 [GSK-J4] + CC1(C)CCC(c2ccc(Cl)cc2)=C(CN2CCN(c3ccc(C(=O)NS(=O)(=O)c4ccc(N[C@H](CCN5CCOCC5)CSc5ccccc5)c(S(=O)(=O)C(F)(F)F)c4)cc3)CC2)C1 [Navitoclax] (partner 0.5 µM)
Method in brief: as §1

AZ3146 + Crizotinib = compound: CN1CCC(CC1)OC2=CC(=C(C=C2)NC3=NC=C4C(=N3)N(C(=O)N4C)C5CCCC5)OC [AZ3146] + C[C@@H](Oc1cc(-c2cnn(C3CCNCC3)c2)cnc1N)c1c(Cl)ccc(F)c1Cl [Crizotinib] (partner 1 µM)
Method in brief: as §1

AZ3146 + Linsitinib = compound: CN1CCC(CC1)OC2=CC(=C(C=C2)NC3=NC=C4C(=N3)N(C(=O)N4C)C5CCCC5)OC [AZ3146] + C[C@]1(O)C[C@@H](c2nc(-c3ccc4ccc(-c5ccccc5)nc4c3)c3c(N)nccn32)C1 [Linsitinib] (partner 1 µM)
Method in brief: as §1

Row | Cell Line | relative viability (GSK-J4 + Palbociclib; first compound 0.5 µM) | relative viability (GSK-J4 + Palbociclib; first compound 1.581 µM) | relative viability (GSK-J4 + Palbociclib; first compound 5 µM) | relative viability (GSK-J4 + Palbociclib; first compound 15.81 µM) | relative viability (GSK-J4 + Palbociclib; first compound 50 µM) | relative viability (GSK-J4 + Navitoclax; first compound 5 µM) | relative viability (GSK-J4 + Navitoclax; first compound 15.81 µM) | relative viability (GSK-J4 + Navitoclax; first compound 50 µM) | relative viability (AZ3146 + Crizotinib; first compound 0.8 µM) | relative viability (AZ3146 + Crizotinib; first compound 2.53 µM) | relative viability (AZ3146 + Crizotinib; first compound 8 µM) | relative viability (AZ3146 + Linsitinib; first compound 0.8 µM) | relative viability (AZ3146 + Linsitinib; first compound 2.53 µM) | relative viability (AZ3146 + Linsitinib; first compound 8 µM) | relative viability (GSK-J4 + Navitoclax; first compound 0.5 µM) | relative viability (GSK-J4 + Navitoclax; first compound 1.581 µM) | relative viability (AZ3146 + Crizotinib; first compound 0.08 µM) | relative viability (AZ3146 + Linsitinib; first compound 0.08 µM) | relative viability (AZ3146 + Linsitinib; first compound 0.253 µM) | relative viability (AZ3146 + Crizotinib; first compound 0.253 µM)
1 | LCLC-97TM1 | 0.211 | 0.216 | 0.225 | 0.211 | 0.272 | 0.43 | 0.178 | 0.307 | 0.485 | 0.352 | 0.304 | 0.221 | 0.164 | 0.173 | – | – | – | – | – | –
2 | LK-2 | 0.765 | 0.652 | 0.85 | 0.683 | 0.506 | 0.874 | 0.829 | 1.05 | – | 0.228 | 0.219 | 0.562 | 0.519 | 0.729 | 0.884 | 0.838 | 0.229 | 0.672 | 0.645 | –
3 | LOU-NH91 | 0.51 | 0.468 | 0.493 | 0.507 | 0.46 | 0.577 | 0.571 | 0.764 | 0.746 | 0.71 | 0.75 | 1.06 | 0.914 | 0.895 | 0.733 | 0.743 | 0.749 | 0.954 | 0.84 | 0.699
4 | LU99A | 0.403 | 0.375 | – | 0.383 | 0.344 | 0.852 | 0.814 | 0.633 | 0.555 | 0.555 | 0.452 | 0.589 | 0.502 | 0.557 | 0.788 | 0.746 | 0.502 | 0.419 | 0.556 | 0.584
5 | LXF-289 | 0.588 | 0.546 | 0.58 | 0.555 | 0.533 | 0.955 | 0.933 | 0.867 | 0.795 | 0.781 | 0.444 | 0.965 | 0.957 | 0.939 | 0.864 | 0.838 | 0.848 | 0.885 | 1.01 | 0.886
6 | NCI-H23 | 0.483 | 0.398 | 0.48 | 0.375 | 0.42 | 0.886 | 0.893 | 0.867 | 0.516 | 0.425 | 0.305 | 0.616 | 0.656 | 0.605 | 0.856 | – | 0.398 | 0.584 | 0.563 | 0.515
7 | NCI-H322M | 0.493 | 0.446 | 0.497 | 0.435 | 0.538 | 1.29 | 1.05 | 1.17 | 0.9 | 0.763 | 0.6 | 0.868 | 0.991 | 0.842 | 1.18 | 1.18 | 0.683 | 0.937 | 0.884 | 0.876
8 | NCI-H441 | 0.235 | 0.202 | 0.241 | 0.221 | 0.161 | 0.508 | 0.667 | 0.535 | 0.774 | 0.773 | 0.658 | 0.474 | 0.635 | 0.621 | 0.818 | 0.362 | 0.646 | 0.479 | 0.525 | 0.658
9 | NCI-H460 | 0.175 | – | 0.167 | 0.137 | 0.149 | 1.09 | 1.22 | 0.994 | 0.664 | 0.11 | 0.0243 | 0.65 | 0.787 | 0.244 | 1.02 | 0.984 | 0.729 | 0.719 | 0.824 | 0.844
10 | NCI-H520 | 0.231 | 0.113 | 0.223 | 0.167 | 0.163 | 1.21 | 0.694 | 1.06 | 0.613 | 0.486 | 0.406 | 1.05 | 1.12 | 0.786 | 1.07 | 0.957 | 0.691 | 0.843 | 0.896 | 0.959
11 | NCI-H647 | 0.404 | 0.348 | 0.358 | 0.411 | 0.471 | 0.981 | 1.06 | 1.09 | 0.978 | 0.763 | 0.201 | 1.1 | 1.16 | 0.434 | 1.02 | 0.737 | 0.983 | 1.14 | 1.3 | 1.12
12 | NCI-H727 | 0.648 | 0.683 | 0.696 | 0.593 | 0.528 | 0.648 | 0.404 | 0.208 | 0.8 | 0.586 | 0.365 | 0.35 | 0.269 | 0.26 | 0.394 | – | 0.813 | 0.319 | 0.188 | 0.796
13 | NCI-H838 | 0.222 | 0.204 | 0.158 | 0.194 | 0.226 | – | 1.08 | 1.14 | 0.656 | 0.613 | 0.281 | 0.97 | 0.971 | 0.79 | 1.13 | 1.07 | 0.797 | 0.921 | 1 | 0.798
14 | NCI-H1355 | 0.372 | 0.375 | 0.415 | 0.35 | 0.356 | 1.18 | 0.815 | 0.924 | 1.1 | 1.04 | 1.08 | 0.825 | 0.864 | 0.885 | 0.913 | 0.793 | 1.07 | 0.774 | 0.854 | 1.04
15 | NCI-H1437 | 0.293 | 0.278 | 0.332 | 0.38 | 0.205 | 1.03 | 1.08 | 0.319 | 0.853 | 1.02 | 0.863 | 1.01 | 1.04 | 1.03 | 1.03 | 1.03 | 0.875 | 0.967 | 0.996 | 0.906
16 | NCI-H1651 | 0.502 | 0.47 | 0.504 | 0.504 | 0.509 | 1.03 | 1.05 | 0.958 | 0.912 | 0.844 | 0.871 | 1.04 | 0.989 | 1 | 0.999 | 0.942 | 0.671 | 0.886 | 1.07 | 0.811
17 | NCI-H1666 | 0.685 | 0.561 | 0.59 | 0.627 | 0.708 | 1.19 | 0.918 | 0.472 | 1.08 | 0.934 | 0.778 | 0.906 | 0.829 | 0.858 | 1.08 | – | 1.08 | 0.738 | 0.862 | 1.01
18 | NCI-H1734 | 0.332 | 0.318 | 0.346 | 0.335 | 0.281 | 0.694 | 0.734 | 0.632 | 0.655 | 0.697 | 0.598 | 0.965 | 0.877 | 0.934 | 0.83 | 0.736 | 0.678 | 0.787 | 0.871 | 0.752
19 | NCI-H1755 | 0.43 | 0.336 | 0.456 | 0.447 | 0.408 | 0.975 | 0.955 | 0.96 | 0.855 | 0.928 | 0.816 | 0.932 | 1.01 | 0.972 | 0.978 | 0.888 | 0.868 | 0.885 | 1.02 | 0.888
20 | NCI-H1792 | 0.622 | – | 0.773 | 0.569 | 0.668 | 0.574 | 0.567 | 0.514 | 1.01 | 0.797 | 1 | 0.523 | 0.6 | 0.65 | 0.621 | 0.571 | 0.834 | 0.436 | 0.551 | 1.07
21 | NCI-H1915 | 0.533 | 0.514 | – | 0.481 | 0.514 | 0.747 | 0.715 | 0.765 | 0.852 | 0.896 | 0.82 | 1.09 | 1.1 | 1.11 | 0.759 | 0.713 | 0.878 | 1.09 | 1.12 | 0.905
22 | NCI-H1944 | 0.378 | 0.334 | – | 0.274 | 0.342 | 1.15 | 0.913 | 1 | 1.09 | 1.13 | 1.1 | 1.14 | 1.21 | 1.35 | 1.06 | 0.953 | – | – | 1.11 | 0.977
23 | NCI-H1975 | 0.543 | 0.498 | 0.613 | 0.524 | 0.634 | – | 1.04 | 1.15 | 0.834 | 0.406 | 0.299 | 1 | 0.978 | 0.352 | 1.05 | 1.11 | 0.862 | 0.988 | 0.986 | 1.07
24 | NCI-H1993 | 0.588 | 0.623 | 0.606 | 0.542 | 0.481 | 1.13 | 0.866 | 0.681 | 0.813 | 0.879 | 0.84 | 0.782 | 0.789 | 0.704 | 1.14 | 0.951 | 0.876 | 0.689 | 0.731 | 0.847
25 | NCI-H2009 | 0.242 | 0.166 | 0.223 | 0.216 | 0.202 | 0.951 | 1.14 | 0.882 | 1.04 | 0.87 | 0.885 | 1.22 | 1.27 | 1.16 | 1.14 | 1.12 | 0.978 | 1.09 | 1.22 | 1.12
26 | NCI-H2023 | 0.317 | 0.371 | 0.385 | 0.41 | 0.435 | 1.08 | 0.991 | 0.915 | 0.485 | 0.407 | 0.449 | 0.612 | 0.677 | 0.546 | 0.921 | 0.976 | 0.592 | 0.743 | 0.694 | 0.636
27 | NCI-H2085 | 0.451 | 0.434 | 0.386 | 0.495 | 0.494 | 1.13 | 1.09 | 0.999 | 0.933 | 0.824 | 0.658 | 0.956 | 0.912 | 0.727 | 0.971 | 1.12 | 0.837 | 0.898 | 0.848 | 0.998
